Source: ChEMBL document CHEMBL3397025, “Guanine-based amphiphiles: synthesis, ion transport properties and biological activity” (Bioorg Med Chem, 2015)

Tests used:
[1] = Ionophoric activity in large unilamellar vesicles containing 95:5 egg phosphatidylcholine and egg phosphatidylglycerol assessed as fluorescence emission at 25 degC after 10 mins by HPTS assay in presence of Na+; type: ADME
[2] = Cytotoxicity against human SH-SY5Y cells assessed as cell viability after 48 hrs by MTT assay; type: functional, cell-based
[3] = tested on: MCF7; test: Cytotoxicity against human MCF7 cells assessed as cell viability after 48 hrs by MTT assay; type: functional, cell-based; settings: MCF7, 48 h
[4] = tested on: HaCaT; test: Cytotoxicity against human HaCaT cells assessed as cell viability after 48 hrs by MTT assay; type: functional, cell-based
[5] = Ionophoric activity in large unilamellar vesicles containing 95:5 egg phosphatidylcholine and egg phosphatidylglycerol assessed as fluorescence emission at 25 degC after 10 mins by HPTS assay in presence of K+; type: ADME
[6] = tested on: DU-145; test: Cytotoxicity against human DU145 cells assessed as cell viability after 48 hrs by MTT assay; type: functional, cell-based; settings: DU-145, 48 h
[7] = Ionophoric activity in large unilamellar vesicles containing 95:5 egg phosphatidylcholine and egg phosphatidylglycerol assessed as fluorescence emission at 25 degC after 10 mins by HPTS assay in presence of Cl-; type: ADME
[8] = Ionophoric activity in large unilamellar vesicles containing 95:5 egg phosphatidylcholine and egg phosphatidylglycerol assessed as fluorescence emission at 25 degC after 10 mins by HPTS assay in presence of F-; type: ADME
[9] = Ionophoric activity in large unilamellar vesicles containing 95:5 egg phosphatidylcholine and egg phosphatidylglycerol assessed as fluorescence emission at 25 degC after 10 mins by HPTS assay in presence of Br-; type: ADME
[10] = Ionophoric activity in large unilamellar vesicles containing 95:5 egg phosphatidylcholine and egg phosphatidylglycerol assessed as fluorescence emission at 25 degC after 10 mins by HPTS assay in presence of I-; type: ADME
[11] = Ionophoric activity in large unilamellar vesicles containing 95:5 egg phosphatidylcholine and egg phosphatidylglycerol assessed as fluorescence emission at 25 degC after 10 mins by HPTS assay in presence of Rb+; type: ADME
[12] = Ionophoric activity in large unilamellar vesicles containing 95:5 egg phosphatidylcholine and egg phosphatidylglycerol assessed as fluorescence emission at 25 degC after 10 mins by HPTS assay in presence of Li+; type: ADME
[13] = Ionophoric activity in large unilamellar vesicles containing 95:5 egg phosphatidylcholine and egg phosphatidylglycerol assessed as fluorescence emission at 25 degC after 10 mins by HPTS assay in presence of Cs+; type: ADME

Compound | Activity [1] | IC50 [2] | IC50 [3] | IC50 [4] | Activity [5] | IC50 [6] | Activity [7] | Activity [8] | Activity [9] | Activity [10] | Activity [11] | Activity [12] | Activity [13]
COCCOCCOCCn1cnc2c(=O)[nH]c(N)nc21 | Not Active | > 100 µM | > 100 µM | > 100 µM | Not Active | > 100 µM | – | – | – | – | – | – | –
Nc1nc2c(ncn2C(=O)CCC(=O)OC[C@H]2O[C@H](O[C@H]3O[C@H](CO)[C@@H](O)[C@H](O)[C@H]3O)[C@H](O)[C@@H](O)[C@@H]2O)c(=O)[nH]1 | Active | 5 µM | 1 µM | 80 µM | Active | 25 µM | Active | Active | Active | Active | Active | Active | Active
CCCCCCCCCCCCCC(=O)O[C@@H]1[C@H](OC(=O)CCCCCCCCCCCCC)[C@@H](COC(=O)CCC(=O)OC[C@H]2O[C@H](O[C@H]3O[C@H](CO)[C@@H](O)[C@H](O)[C@H]3O)[C@H](O)[C@@H](O)[C@@H]2O)O[C@H]1n1cnc2c(=O)[nH]c(N)nc21 | – | 17 µM | – | – | – | – | – | – | – | – | – | – | –
